Reference: patent publication US20250186388A1, “ACTIVE SUBSTANCES FOR MEDICAL USE” (INFLAMED PHARMA GMBH, priority 2020, published 2025)
Where a name gives a salt, the structure may show the parent alone.

How the values were obtained:
[1] = Solubility in octanol (content in the organic phase by UV/VIS spectroscopy, pH values); format: physicochemical; conditions: for pH value: solubility test in octanol
Method: Solubility tests were carried out in octanol and the content in the organic phase was investigated by UV/VIS spectroscopy and the pH values.

[2] = test system: rabbits incubated with E. coli; conditions: cited from earlier work
[3] = rabbits incubated with E. coli, lidocaine administration

Row | SMILES | Content (solubility in octanol, content in the organic phase) [1] | pH value [1] | incidence of pulmonary oedema ([2]; compared to a comparison group) | albumin content in the bronchoalveolar lavage ([2]; lidocaine group) | leucocytes in the bronchoalveolar lavage ([2]; lidocaine group) | haemorrhages, alveolar septal thickening and number of inflammatory cells in the alveolar space ([2]; rabbit, in vivo) | lung mechanics (compliance, resistance) [2, 3] | paO2 [2, 3]
1 | CCN(CC)CCOC(=O)c1ccc(N)cc1 [Procaine hydrochloride] | 8% | 4.5 | – | – | – | – | – | –
2 | CCN(CC)CC(=O)Nc1c(C)cccc1C [lidocaine] | – | – | reduced incidence | lower | fewer | visibly reduced | improved | increase
3 | CCN(CC)CCOC(=O)c1ccc(N)cc1 [Procaine, 4-aminobenzoic acid-2-(N,N-diethylamino)ethyl ester] | completely dissolved (100%) | 8.5 | – | – | – | – | – | –
